Assay [1] concerns the target Angiotensin-converting enzyme (Homo sapiens, UniProt P12821). In words: Inhibition of human recombinant ACE by fluorescence assay. The following applies: read-out: Ki app.
For a further assay, the target named is Neprilysin (Homo sapiens, UniProt P08473). In words: Inhibition of human recombinant NEP by fluorescence assay. The conditions noted are these: read-out: Ki app.
Another assay addresses T1, Carboxypeptidase A1 (Homo sapiens, UniProt P15085).
T1 sequence (P15085 whole entry): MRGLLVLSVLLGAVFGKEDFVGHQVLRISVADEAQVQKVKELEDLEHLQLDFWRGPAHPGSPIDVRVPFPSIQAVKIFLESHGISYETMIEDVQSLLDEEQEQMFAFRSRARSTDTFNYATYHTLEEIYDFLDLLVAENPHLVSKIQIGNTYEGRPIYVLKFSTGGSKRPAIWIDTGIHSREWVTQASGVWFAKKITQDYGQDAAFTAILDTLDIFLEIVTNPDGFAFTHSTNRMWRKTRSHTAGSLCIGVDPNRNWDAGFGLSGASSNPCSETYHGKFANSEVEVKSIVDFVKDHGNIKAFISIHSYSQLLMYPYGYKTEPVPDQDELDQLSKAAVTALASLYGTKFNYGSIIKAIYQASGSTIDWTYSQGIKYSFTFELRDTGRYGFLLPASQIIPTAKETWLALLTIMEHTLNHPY
In words: Inhibition of human recombinant CpA by fluorescence assay. The following applies: read-out: Ki app.

Assay [2] is filed under the species Homo sapiens. Nature of the assay: Selectivity for human recombinant ACE2 over human recombinant NEP.
For assay [3], the target named is T2, Angiotensin-converting enzyme 2 (Homo sapiens, UniProt Q9BYF1). In words: Inhibition of human recombinant ACE2 by fluorescence assay. The conditions noted are these: read-out: Ki app.
The species named for assay [4] is Homo sapiens. Nature of the assay: Selectivity for human recombinant ACE2 over human recombinant ACE.
The species named for assay [5] is Homo sapiens. Nature of the assay: Selectivity for human recombinant ACE2 over human recombinant CpA.
Assay [6] has as its target T2, Angiotensin-converting enzyme 2. In words: Inhibition of ACE2.

Molecules are shown by their SMILES.

Chain of Angiotensin-converting enzyme (P12821 whole entry): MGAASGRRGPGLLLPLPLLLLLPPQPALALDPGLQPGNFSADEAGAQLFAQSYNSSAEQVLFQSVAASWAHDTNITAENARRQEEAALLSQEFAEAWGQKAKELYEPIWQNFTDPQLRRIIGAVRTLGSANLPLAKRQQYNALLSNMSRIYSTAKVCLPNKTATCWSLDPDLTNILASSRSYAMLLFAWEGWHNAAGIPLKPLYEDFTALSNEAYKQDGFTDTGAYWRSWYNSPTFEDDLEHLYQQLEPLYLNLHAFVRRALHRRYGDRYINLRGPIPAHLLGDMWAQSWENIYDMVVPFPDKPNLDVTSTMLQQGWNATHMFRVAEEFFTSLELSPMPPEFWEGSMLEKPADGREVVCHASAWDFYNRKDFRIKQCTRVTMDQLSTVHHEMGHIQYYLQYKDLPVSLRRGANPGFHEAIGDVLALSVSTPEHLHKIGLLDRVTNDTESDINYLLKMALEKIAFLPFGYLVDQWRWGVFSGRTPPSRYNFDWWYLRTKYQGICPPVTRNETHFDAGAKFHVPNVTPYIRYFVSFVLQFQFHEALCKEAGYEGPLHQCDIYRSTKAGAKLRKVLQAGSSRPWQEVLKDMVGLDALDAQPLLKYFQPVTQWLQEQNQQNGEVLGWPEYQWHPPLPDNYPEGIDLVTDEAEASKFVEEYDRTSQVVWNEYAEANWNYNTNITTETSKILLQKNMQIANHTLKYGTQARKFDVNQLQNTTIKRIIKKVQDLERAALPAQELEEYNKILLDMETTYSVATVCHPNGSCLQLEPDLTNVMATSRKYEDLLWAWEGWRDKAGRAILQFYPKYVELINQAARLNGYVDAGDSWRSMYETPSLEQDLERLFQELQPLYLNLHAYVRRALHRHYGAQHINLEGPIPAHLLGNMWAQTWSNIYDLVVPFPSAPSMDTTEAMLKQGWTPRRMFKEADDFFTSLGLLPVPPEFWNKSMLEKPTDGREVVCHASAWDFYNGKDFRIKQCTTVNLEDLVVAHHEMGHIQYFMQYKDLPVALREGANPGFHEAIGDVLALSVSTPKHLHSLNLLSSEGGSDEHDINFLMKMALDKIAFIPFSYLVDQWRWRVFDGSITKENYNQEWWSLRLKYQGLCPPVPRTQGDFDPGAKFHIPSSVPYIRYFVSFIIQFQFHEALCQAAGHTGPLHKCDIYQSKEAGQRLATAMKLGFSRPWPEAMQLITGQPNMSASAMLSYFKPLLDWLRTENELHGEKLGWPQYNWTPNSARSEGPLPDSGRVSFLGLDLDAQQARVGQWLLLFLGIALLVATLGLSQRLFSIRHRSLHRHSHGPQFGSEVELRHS
Chain of Neprilysin (P08473 whole entry): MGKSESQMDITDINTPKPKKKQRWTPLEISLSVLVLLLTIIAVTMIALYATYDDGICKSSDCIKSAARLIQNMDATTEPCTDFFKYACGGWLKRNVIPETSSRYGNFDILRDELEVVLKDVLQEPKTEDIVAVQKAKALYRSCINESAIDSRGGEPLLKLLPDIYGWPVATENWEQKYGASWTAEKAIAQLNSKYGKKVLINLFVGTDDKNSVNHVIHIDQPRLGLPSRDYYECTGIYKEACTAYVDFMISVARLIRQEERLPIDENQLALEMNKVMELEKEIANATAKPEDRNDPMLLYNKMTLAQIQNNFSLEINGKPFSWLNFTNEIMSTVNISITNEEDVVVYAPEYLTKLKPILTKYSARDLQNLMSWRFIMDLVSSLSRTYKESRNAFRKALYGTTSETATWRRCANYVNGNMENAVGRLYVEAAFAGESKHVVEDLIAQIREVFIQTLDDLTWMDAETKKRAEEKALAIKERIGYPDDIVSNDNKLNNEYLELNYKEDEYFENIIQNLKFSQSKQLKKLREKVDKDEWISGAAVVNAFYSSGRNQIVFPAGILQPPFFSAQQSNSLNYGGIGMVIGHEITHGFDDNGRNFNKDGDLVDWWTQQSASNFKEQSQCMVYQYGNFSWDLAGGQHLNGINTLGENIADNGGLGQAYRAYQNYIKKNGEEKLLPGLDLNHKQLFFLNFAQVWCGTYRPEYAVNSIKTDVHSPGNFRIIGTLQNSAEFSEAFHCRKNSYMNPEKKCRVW
T2 sequence (Q9BYF1 whole entry): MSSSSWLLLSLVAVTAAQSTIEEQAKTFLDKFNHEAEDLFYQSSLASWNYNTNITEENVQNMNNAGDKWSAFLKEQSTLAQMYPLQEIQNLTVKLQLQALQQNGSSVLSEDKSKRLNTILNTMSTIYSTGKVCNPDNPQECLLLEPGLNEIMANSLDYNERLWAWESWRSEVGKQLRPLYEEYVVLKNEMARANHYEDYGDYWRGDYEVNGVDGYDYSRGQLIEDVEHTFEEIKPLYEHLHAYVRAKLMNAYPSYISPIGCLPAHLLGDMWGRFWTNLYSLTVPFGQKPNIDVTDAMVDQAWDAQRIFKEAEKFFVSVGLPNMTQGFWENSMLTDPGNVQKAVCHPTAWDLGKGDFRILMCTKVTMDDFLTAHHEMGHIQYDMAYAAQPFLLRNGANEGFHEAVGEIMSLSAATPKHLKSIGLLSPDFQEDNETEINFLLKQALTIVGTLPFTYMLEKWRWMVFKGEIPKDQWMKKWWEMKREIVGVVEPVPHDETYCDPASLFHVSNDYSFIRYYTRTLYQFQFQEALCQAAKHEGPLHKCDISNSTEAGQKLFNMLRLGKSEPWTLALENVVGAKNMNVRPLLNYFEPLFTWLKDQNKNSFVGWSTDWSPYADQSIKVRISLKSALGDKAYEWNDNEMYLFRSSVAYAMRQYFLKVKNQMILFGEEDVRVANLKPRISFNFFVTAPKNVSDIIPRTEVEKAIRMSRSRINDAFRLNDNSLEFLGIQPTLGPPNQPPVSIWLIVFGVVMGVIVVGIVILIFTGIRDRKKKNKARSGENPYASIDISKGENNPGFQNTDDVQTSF

As to `CC[C@@H](C)[C@H](S)C(=O)N[C@@H](Cc1cccc(OCc2ccccc2)c1)C(=O)O`, the Ki came out at 0.75 µM in assay [1], 0.037 µM at Neprilysin, 5 µM on Carboxypeptidase A1 and 0.0024 µM in assay [3]. Also, the Selectivity ratio in the assay listed under Homo sapiens [2] amounted to 15.
As for `CC[C@@H](C)[C@H](S)C(=O)N[C@@H](Cc1ccccc1OCc1ccccc1)C(=O)O`, the Ki was determined as 0.77 µM in assay [1], 0.12 µM at Neprilysin, 1.6 µM at Carboxypeptidase A1 and 0.006 µM in assay [3]. In addition, the Selectivity ratio in the assay listed under Homo sapiens [2] worked out at 20.
As for `CC[C@@H](C)[C@H](S)C(=O)N[C@@H](Cc1cccc(Oc2ccccc2)c1)C(=O)O`, the Ki in assay [1] is 1.1 µM; on Neprilysin, 0.079 µM; on Carboxypeptidase A1, 14 µM; in assay [3] it was 0.0058 µM.
As to `CC[C@@H](C)[C@H](S)C(=O)N[C@@H](Cc1ccc(OCc2ccc(F)cc2)cc1)C(=O)O`, the Ki turned out to be 4 µM in assay [1], 0.18 µM at Neprilysin, 16 µM on Carboxypeptidase A1 and 0.0025 µM in assay [3].
For `CC[C@@H](C)[C@H](S)C(=O)N[C@@H](C)C(=O)O` the same measures were 0.18 µM, 0.95 µM, 11 µM and 0.014 µM.
For `CC[C@@H](C)[C@H](S)C(=O)N[C@@H](Cc1ccc(OCc2cc(C(F)(F)F)cc(C(F)(F)F)c2)cc1)C(=O)O`, in that order: 25 µM, 11 µM, 11 µM and 0.084 µM.
For `CC[C@@H](C)[C@H](S)C(=O)N[C@@H](Cc1ccc2ccccc2c1)C(=O)O`, the Ki in assay [1] came to 0.31 µM; on Neprilysin, 0.046 µM; at Carboxypeptidase A1, 7.2 µM; in assay [3], 0.0024 µM. For the same compound, the Selectivity ratio in the assay filed under Homo sapiens [4] and in the assay listed under Homo sapiens [5] was over 100 in each case.
Regarding `CC[C@@H](C)[C@H](S)C(=O)N[C@@H](Cc1ccc(OCc2ccc(F)c(F)c2)cc1)C(=O)O`, the Ki in assay [1] was determined as 1.8 µM; at Neprilysin it was 0.64 µM; on Carboxypeptidase A1, 3.3 µM; in assay [3] it was 0.00085 µM. In addition, the Selectivity ratio in the assay filed under Homo sapiens [4] and in the assay filed under Homo sapiens [5] was over 750 throughout.
As a reminder, the IC50 is the concentration at which inhibition is half-maximal. A high value points to weaker potency. Turning to `NCCNCCN1CC1`, in assay [6], the IC50 was 57 µM.
Take `CC[C@@H](C)[C@H](S)C(=O)N[C@@H](Cc1ccccc1)C(=O)O`: the Ki was 0.57 µM in assay [1], 0.035 µM at Neprilysin, 0.53 µM at Carboxypeptidase A1 and 0.0015 µM in assay [3].
Turning to `CC[C@@H](C)[C@H](S)C(=O)N[C@@H](Cc1cccc2ccccc12)C(=O)O`, the Ki in assay [1] was 1.8 µM; on Neprilysin it was 0.012 µM; on Carboxypeptidase A1, 3.6 µM; in assay [3], 0.0022 µM. For the same compound, the Selectivity ratio in the assay filed under Homo sapiens [4] and in the assay filed under Homo sapiens [5] was over 100 throughout.
For the compound `CC[C@@H](C)[C@H](S)C(=O)N[C@@H](Cc1ccc(Oc2ccccc2)cc1)C(=O)O`, the Ki came out at 0.25 µM in assay [1], 0.01 µM at Neprilysin, 8.9 µM on Carboxypeptidase A1 and 0.0022 µM in assay [3]. Moreover, the Selectivity ratio in the assay filed under Homo sapiens [4] is over 100.
Turning to `CC[C@@H](C)[C@H](S)C(=O)N[C@@H](Cc1cccc(-c2ccccc2)c1)C(=O)O`, the Ki in assay [1] stood at 1 µM; on Neprilysin it was 0.019 µM; at Carboxypeptidase A1, 5 µM; in assay [3], 0.0022 µM.
On to `CC[C@@H](C)[C@H](S)C(=O)N[C@@H](Cc1ccc(OCc2ccc(C(F)(F)F)cc2)cc1)C(=O)O`, for which the Ki came out at 2.6 µM in assay [1], 1.5 µM on Neprilysin, 4.6 µM at Carboxypeptidase A1 and 0.035 µM in assay [3].
With `CC(=O)NCC(=O)N[C@@H](CC(=O)O)C(=O)N[C@@H](Cc1ccc(O)cc1)C(=O)N[C@@H](CO)C(=O)N[C@@H](Cc1cnc[nH]1)C(=O)N[C@H]1CSSC[C@@H](C(=O)N[C@H](C(=O)N[C@@H](Cc2ccc(O)cc2)C(=O)N2CCC[C@H]2C(=O)N[C@@H](CC(=O)O)C(=O)N2CCC[C@H]2C(=O)N[C@@H](CCC(=O)O)C(=O)NCC(=O)NCC(=O)NCC(N)=O)[C@@H](C)O)NC(=O)[C@H](CCCCN)NC(=O)[C@H](Cc2c[nH]c3ccccc23)NC(=O)[C@H](Cc2c[nH]c3ccccc23)NC(=O)[C@@H]2CCCN2C(=O)[C@H](Cc2ccc(O)cc2)NC(=O)[C@H](Cc2ccc(O)cc2)NC(=O)[C@H](CCCNC(=N)N)NC(=O)[C@H](CC(C)C)NC(=O)[C@@H]2CCCN2C(=O)[C@H](CO)NC1=O`, in assay [6], the IC50 is 0.01 µM.
As for `CC[C@@H](C)[C@H](S)C(=O)N[C@@H](Cc1ccccc1Oc1ccccc1)C(=O)O`, the Ki in assay [1] stood at 5 µM; at Neprilysin, 0.18 µM; at Carboxypeptidase A1, 2.3 µM; in assay [3], 0.0009 µM. Further, the Selectivity ratio in the assay filed under Homo sapiens [2] was determined as 200.
On to `CC[C@@H](C)[C@H](S)C(=O)N[C@@H](Cc1ccc(OCc2ccc(F)cc2F)cc1)C(=O)O`, for which the Ki stood at 0.95 µM in assay [1], 0.075 µM on Neprilysin, 1.9 µM at Carboxypeptidase A1 and 0.002 µM in assay [3].
Take `CC[C@@H](C)[C@H](S)C(=O)N[C@@H](Cc1ccccc1-c1ccccc1)C(=O)O`: the Ki came to 20 µM in assay [1], 0.19 µM on Neprilysin, 9.9 µM on Carboxypeptidase A1 and 0.037 µM in assay [3].
For `CC[C@@H](C)[C@H](S)C(=O)N[C@@H](Cc1ccc(O)cc1)C(=O)O`, in that order: 0.41 µM, 0.075 µM, 0.35 µM and 0.0013 µM.
For `CC[C@@H](C)[C@H](S)C(=O)NCC(=O)O`, in that order: 0.25 µM, 5.1 µM, 35 µM and 0.09 µM.
On to `CC[C@@H](C)[C@H](S)C(=O)N[C@@H](Cc1ccc(OCc2ccccc2)cc1)C(=O)O`, for which the Ki came to 0.57 µM in assay [1], 0.3 µM at Neprilysin, 4.6 µM at Carboxypeptidase A1 and 0.0027 µM in assay [3]. In addition, the Selectivity ratio in the assay listed under Homo sapiens [2] was found to be 110.

These data come from ChEMBL document CHEMBL1141500, “Thiol-based angiotensin-converting enzyme 2 inhibitors: P1' modifications for the exploration of the S1' subsite” (Bioorg Med Chem Lett, 2008).
